Where two headings read alike, the source gives them in different places.
Assays:
[1] = target: NR1111/NR2A (Rattus norvegicus, UniProt P35439+Q00959); design: agonist Emax: dose or concentration left out as unconfirmed; settings: NR1111/NR2A
[2] = target: NR1011/NR2A (Rattus norvegicus, UniProt P35439+Q00959); design: agonist Emax: dose or concentration left out as unconfirmed; settings: NR1011/NR2A
[3] = target: NR1101/NR2A (Rattus norvegicus, UniProt P35439+Q00959); design: agonist Emax: dose or concentration left out as unconfirmed; settings: NR1101/NR2A
[4] = target: NR1001/NR2A (Rattus norvegicus, UniProt P35439+Q00959); design: agonist Emax: dose or concentration left out as unconfirmed; settings: NR1001/NR2A
[5] = target: NR1100/NR2A (Rattus norvegicus, UniProt P35439+Q00959); design: agonist nHill / agonist Emax: dose or concentration left out as unconfirmed; settings: NR1100/NR2A
[6] = target: NR1000/NR2A (Rattus norvegicus, UniProt P35439+Q00959); design: agonist Emax: dose or concentration left out as unconfirmed; settings: NR1000/NR2A
[7] = target: NR1010/NR2A (Rattus norvegicus, UniProt P35439+Q00959); design: agonist nHill / agonist Emax: dose or concentration left out as unconfirmed; settings: NR1010/NR2A
[8] = target: NR1/NR2A (NR1100) (Rattus norvegicus, UniProt P35439+Q00959)
Excerpt: (§5) Plasmids containing the NR1100 (NR1G) and NR2A cDNA inserts were kindly provided by Dr. Nakanishi (Kyoto University Faculty of Medicine, Kyoto, Japan). Plasmids containing the NR2B, NR2C and NR2D cDNA inserts were kindly provided by Dr. P. Seeburg (Heidelberg University, Heidelberg, Germany). Plasmids were linearized with appropriate restriction enzyme prior to in vitro transcription using the Message Machine kit (Ambion, Inc., Austin, Tex.).
(§6) Female, oocyte-positive Xenopus laevis frogs were purchased from Xenopus I (Dexter, Mich.). […] Oocytes were injected with 50 nL of RNA solutions using an electronic microinjector (Drummond Inc., Broomall, Pa.). […] The injected oocytes were used for experiments following 1-5 days of incubation in Barth's solution at 18-20° C.
(§7) The microelectrodes were fabricated from borosilicate glass capillaries with a programmed puller (Sutter Instrument Co., Calif.). Microelectrode resistance was 1-3 MΩ_when filled with 3 M KCl.
(§8) Except where otherwise stated, oocytes were clamped at a holding potential of −70 mV during data acquisition. The membrane current was filtered at 500 Hz and sampled at 100 Hz. Drugs were applied using a gravity-driven external perfusion system. The working volume of the recording chamber was 30 μl and the rate of the perfusion was 50 μl/sec. The drug application lasted 10 sec and was followed by 60 s wash. Data acquisition and external perfusion were controlled using custom-written software implemented in the SuperScope II development environment (GW Instruments, Mass.). All experiments were performed at room temperature of 22-24° C. Peak or steady-state current measurements were normalized and expressed as a fraction of the peak or steady-state control current measurements, which were performed before and after application of every single concentration of agonists or steroids.
(§9) Concentration-response data were analyzed by nonlinear regress ion using the logistic equation Response=Emax/(1+(EC50/c)^nH), where c is concentration, Emaxis the maximum response, nHis the Hill coefficient. The data are presented as mean±SEM. EC50values are averaged as logarithms (De Lean et al., Am. J. Physiol. 235: E97-E102 (1978))±the SEM of the log EC50. […] The pooled data were simultaneously fitted to the logistic equation, either with Emax and EC50 constrained to be identical in the presence and absence of PS, or allowing one or both to vary independently. […] This was regarded as indicating a significant treatment effect of PS, but the change in EC50and Emaxwas not considered significant. […] No attempt was made to test the generally small changes in nHfor statistical significance.

[9] = target: NR1/NR2B (NR1100) (Rattus norvegicus, UniProt P35439+Q00960)
Excerpt: as §5, §6, §7, §8, §9

[10] = target: NR1/NR2C (NR1100) (Rattus norvegicus, UniProt P35439+Q00961); settings: NR1/NR2C; for EC50: read-out: agonist EC50
Excerpt: as §5, §6, §7, §8, §9

[11] = target: NR1/NR2D (NR1100) (Rattus norvegicus, UniProt P35439+Q62645)
Excerpt: as §5, §6, §7, §8, §9

[12] = target: T1, GluR1 AMPA receptor (Rattus norvegicus, UniProt P19490); test: Kainate-induced currents, Xenopus oocytes injected with GluR1 cRNA; format: cell-based; settings: GluR1; steroid 100 μM; 100 μM kainate; −100 mV
T1 construct: expressed in transfected cells; host or cells: Xenopus oocytes injected with GluR1 cRNA
Excerpt: (§1) Plasmids were obtained from the following individuals: Dr. Suzanne Zukin (Albert Einstein College of Medicine, Bronx, N.Y.), NR1100; Dr. Shigetada Nakanishi (Kyoto University Faculty of Medicine, Kyoto, Japan), NR2A; Dr. Stephen Heinemann (Salk Institute, San Diego, Calif.), GluR1 (flop), GluR3 (flop), and GluR6. Plasmids were linearized with BamH1 (NR1100), XhoI (NR2A, GluR1, GluR3) or XbaI (GluR6) prior to in vitro transcription with T3 (GluR1, GluR3, GluR6) or T7 (NR1100, NR2A) RNA polymerase using the Message Machine kit (Ambion, Austin, Tex.). […] RNA solutions (50-70 nl) were injected into oocytes for delivery of NR1100 (5 ng), NR1100:NR2A (1:10 ng), GluR1 (5 ng). GluR3 (5 ng), or GluR6 (20 ng). Oocytes were incubated in ND96 at 18-20° C. for 3-7 days prior to electrophysiological recording.
(§2) Steroid solutions were prepared as 70-100 mM frozen stocks in dimethyl sulfoxide (DMSO). The final DMSO concentration of all recording solutions was between 0.1% to 0.5% and was constant within an experiment.
(§3) Perfusion control and data acquisition were carried out using an automated oocyte electrophysiology workstation that was developed for the rapid collection of concentration-response data and real-time waveform analysis (Yaghoubi et al., Soc. Neurosci. Abstr. 20: 1109 (1995)). This system is implemented on a Macintosh IIci computer (Apple Computer, Cupertino, Calif.) equipped with MacA-DIOS II data acquisition and control hardware (GW Instruments, Somerville, Mass.). Drug application is controlled by the computer through a series of valves, using custom-written software based on the SuperScope II development environment, improving the efficiency and reproducibility of data collection. Experiments were carried out using an Axoclamp-2A voltage clamp amplifier (Axon Instruments, Foster City, Calif.) in two-electrode voltage clamp mode. Intracellular microelectrodes (1-3 MΩ) were filled with 3 M KCl. […] Membrane potential was clamped at −60 to −70 mV and stepped to −100 mV at the start of data acquisition unless otherwise stated. […] Current and voltage recordings were digitized at 100 Hz for analysis. GluR6 injected oocytes were treated for 10 min with 10 μg/ml concanavalin A to prevent fast desensitization.
(§4) Results are expressed as mean±S.E.M. Statistical comparisons were made using Student's t-test.

[13] = target: T2, GluR3 AMPA receptor (Rattus norvegicus, UniProt P19492); test: Kainate-induced currents, Xenopus oocytes injected with GluR3 cRNA; format: cell-based; settings: GluR3; steroid 100 μM; 100 μM kainate; −100 mV
T2 construct: expressed in transfected cells; host or cells: Xenopus oocytes injected with GluR3 cRNA
Excerpt: as §1, §2, §3, §4

[14] = target: T3, GluR6 kainate receptor (Rattus norvegicus, UniProt P42260); test: Kainate-induced currents, Xenopus oocytes injected with GluR6 cRNA; format: cell-based; settings: GluR6; steroid 100 μM; 10 μM kainate; −100 mV
T3 construct: expressed in transfected cells; host or cells: Xenopus oocytes injected with GluR6 cRNA (concanavalin A treated)
Excerpt: as §1, §2, §3, §4

[15] = tested on: primary cultures of rat hippocampal neurons; test: NMDA-induced neuronal death, trypan blue exclusion; format: cell-based; settings: DNQX; 100 μM SR-95531; not shown
Protocol: Principally neuronal cultures were prepared from hippocampal tissue of fetal Sprague-Dawley rats on day 18 of embryonic development, as previously described (Brewer et al., Brain Research 494: 65-74 (1989)). Briefly, hippocampal cells were dissociated by trituration in Ca^2+/Mg^2+-free Hank's basic salt solution (Gibco) supplemented with 4.2 mM bicarbonate, 1 mM sodium pyruvate, 20 mM HEPES, 3 mg/ml bovine serum albumin (BSA). Dissociated cells were then pelleted by centrifugation (500×g, 4 min). […] Cells were then plated onto poly-L-lysine-coated 24-well culture dishes (Nunclon) at a density of 15,000 cell/cm^2 and maintained in a humidified atmosphere containing 5% CO2/95% air at 37° C. After 48 h, nonneuronal cell division was inhibited by a 48 h exposure to 1 μM cytosine arabinoside. Cultures were subsequently maintained in serum-free DMEM plus defined components and were used for experiments 16 to 24 days after plating.
Steroids were dissolved in DMSO (0.5% final concentration), and all treatment media contained 0.5% DMSO. […] Following exposure, cultures were washed 3 times with medium from sister cultures (conditioned medium). After the final wash, steroid or vehicle was reintroduced. Drugs were added to cultures in 25 μl of conditioned medium to yield a final volume of 0.25 ml per well. Except where otherwise noted, final steroid concentration was 100 μM.
The ability of neurons to exclude trypan blue was used to quantitate cell viability (Dawson et al., Proc Natl Acad Sci USA 88: 6368-6371 (1991)). […] Cultures were then fixed with 4% paraformaldehyde in PBS for 30 min, at whichtime the fixative was replaced with PBS. The number of stained and unstained neurons were counted in 4 high-power fields per culture well, using an inverted phase contrast microscope under both bright field and phase contrast settings. Experiments were performed in triplicate, and all assessments were made with the experimenter blind to the treatment of each culture well. Percent cell death is expressed as follows: (number of trypan blue stained neurons)/(total number of neurons)×100%.
All data are expressed as mean±standard error of the mean. Statistical significance was evaluated using 95% confidence limits unless otherwise noted.

NR1010/NR2A, sequence (Q00959 23-1464, other chains not shown): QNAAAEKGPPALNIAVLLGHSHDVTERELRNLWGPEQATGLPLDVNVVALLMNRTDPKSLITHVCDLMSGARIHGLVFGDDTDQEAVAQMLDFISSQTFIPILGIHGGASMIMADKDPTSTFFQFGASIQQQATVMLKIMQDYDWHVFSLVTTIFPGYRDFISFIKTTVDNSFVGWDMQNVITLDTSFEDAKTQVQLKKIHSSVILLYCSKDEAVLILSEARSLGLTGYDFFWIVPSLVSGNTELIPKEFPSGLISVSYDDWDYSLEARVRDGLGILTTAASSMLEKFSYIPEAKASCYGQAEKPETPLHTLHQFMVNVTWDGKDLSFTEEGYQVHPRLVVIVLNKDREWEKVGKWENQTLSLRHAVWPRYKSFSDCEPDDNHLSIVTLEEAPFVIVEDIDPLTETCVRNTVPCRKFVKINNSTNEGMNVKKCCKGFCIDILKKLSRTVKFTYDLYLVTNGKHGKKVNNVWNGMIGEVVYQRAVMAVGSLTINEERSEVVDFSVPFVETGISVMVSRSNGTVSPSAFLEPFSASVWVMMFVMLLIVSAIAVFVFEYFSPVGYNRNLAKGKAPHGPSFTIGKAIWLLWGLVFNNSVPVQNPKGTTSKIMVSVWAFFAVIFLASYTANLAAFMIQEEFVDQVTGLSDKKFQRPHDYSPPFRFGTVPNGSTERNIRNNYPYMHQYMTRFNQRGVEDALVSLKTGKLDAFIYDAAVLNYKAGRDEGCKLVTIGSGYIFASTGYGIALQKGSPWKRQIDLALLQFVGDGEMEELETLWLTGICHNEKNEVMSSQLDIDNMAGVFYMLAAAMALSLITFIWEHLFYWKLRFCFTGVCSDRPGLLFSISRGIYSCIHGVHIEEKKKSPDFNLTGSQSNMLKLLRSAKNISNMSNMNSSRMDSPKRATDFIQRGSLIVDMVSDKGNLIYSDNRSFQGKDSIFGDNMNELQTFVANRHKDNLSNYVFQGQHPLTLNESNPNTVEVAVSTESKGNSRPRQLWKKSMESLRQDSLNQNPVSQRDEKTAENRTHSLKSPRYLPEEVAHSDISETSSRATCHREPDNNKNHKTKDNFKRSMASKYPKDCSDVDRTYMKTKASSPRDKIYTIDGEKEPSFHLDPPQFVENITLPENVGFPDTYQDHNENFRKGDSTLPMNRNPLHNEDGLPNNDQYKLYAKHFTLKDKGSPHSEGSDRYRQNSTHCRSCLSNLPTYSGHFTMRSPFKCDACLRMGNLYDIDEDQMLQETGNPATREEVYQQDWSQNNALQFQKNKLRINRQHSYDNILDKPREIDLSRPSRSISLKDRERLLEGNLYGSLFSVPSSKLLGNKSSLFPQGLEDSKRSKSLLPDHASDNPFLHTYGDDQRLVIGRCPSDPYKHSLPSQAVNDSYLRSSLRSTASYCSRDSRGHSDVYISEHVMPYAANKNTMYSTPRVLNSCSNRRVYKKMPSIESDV
NR1001/NR2A, sequence (Q00959 23-1464, other chains not shown): as above
NR1/NR2A (NR1100), sequence (Q00959 23-1464, other chains not shown): as above

Row | Compound | agonist Emax ([1]; absence of PS) | agonist Emax ([1]; presence of PS) | agonist Emax ([2]; presence of PS) | agonist Emax ([3]; absence of PS) | agonist Emax ([3]; presence of PS) | agonist Emax ([4]; absence of PS) | agonist Emax ([4]; presence of PS) | agonist Emax ([5]; absence of PS) | agonist Emax ([5]; presence) | agonist nHill ([5]; presence) | agonist Emax ([6]; absence of PS) | agonist Emax ([6]; presence of PS) | agonist Emax ([7]; absence of PS) | agonist nHill ([7]; presence of PS) | agonist Emax ([8]; +100 μM PS) | agonist nH ([8]; +100 μM PS) | agonist Emax ([9]; +100 μM PS) | agonist nH ([9]; no PS) | agonist Emax ([10]; +100 μM PS) | agonist Emax ([11]; +100 μM PS) | also measured
1 | N[C@@H](CCC(=O)O)C(=O)O [L-glutamate] | 1.87 ± 0.12 | 2.62 ± 0.27 | 2.08 ± 0.21 | 1.77 ± 0.09 | 2.72 ± 0.07 | 2.10 ± 0.12 | 2.85 ± .26 | 1.50 ± 0.04 | 2.30 ± 0.21 | 0.98 ± 0.06 | 1.75 ± 0.02 | 2.92 ± 0.03 | 1.48 ± 0.03 | 1.59 ± 0.15 | 2.3 ± 0.2 | 0.98 ± 0.06 | 1.34 ± 0.07 | 1.14 ± 0.10 | 0.87 | 0.80 | agonist nHill ([1]; absence of PS): 1.39 ± 0.02; agonist Emax ([2]; absence of PS): 1.59 ± 0.03; agonist nHill ([4]; presence of 100 mM PS): 1.57 ± 0.18; agonist nHill ([5]; absence of PS): 1.15 ± 0.04; agonist nHill ([7]; absence of PS): 1.32 ± 0.14; agonist nH ([8]; no PS): 1.15 ± 0.04; agonist Emax ([8]; no PS, normalized to 200 μM NMDA plus 10 μM glycine): 1.50; agonist Emax ([9]; no PS): 1.23 ± 0.04; agonist Emax ([10]; no PS): 1.31 ± 0.02; EC50 ([10]; +100 μM PS): 60 nM; EC50 ([10]; no PS): 75 nM; agonist Emax ([11]; no PS): 1.10 ± 0.03; EC50 ([11]; read-out: agonist EC50, +100 μM PS): 37 nM; EC50 ([11]; read-out: agonist EC50, no PS): 25 nM
2 | C[C@]12CC[C@@H]3c4ccc(OS(=O)(=O)O)cc4CC[C@H]3[C@@H]1CC[C@H]2O [17α-Estradiol-3-sulfate] | – | – | – | – | – | – | – | – | – | – | – | – | – | – | – | – | – | – | – | – | Percentage change in kainate response [12]: −22 ± 3(3) %; Percentage change in kainate response [13]: −17 ± 2(3) %; Percentage change in kainate response [14]: −7 ± 1(5) %
3 | Br.COc1ccc(-c2ccc(=N)n(CCCC(=O)O)n2)cc1 [SR-95531] | – | – | – | – | – | – | – | – | – | – | – | – | – | – | – | – | – | – | – | – | effect on NMDA-induced neuronal death [15]: no effect
4 | NCC(=O)O [glycine] | 1.93 ± 0.07 | 2.68 ± 0.16 | 2.24 ± 0.29 | 1.63 ± 0.04 | 2.46 ± 0.23 | 1.89 ± 0.20 | 2.77 ± 0.40 | 1.52 ± 0.07 | 2.34 ± 0.09 | 1.03 ± 0.05 | 1.48 ± 0.04 | 2.88 ± 0.27 | 1.51 ± 0.07 | 1.38 ± 0.10 | 2.34 | 1.03 ± 0.05 | 1.63 ± 0.04 | 1.09 ± 0.04 | 0.87 | 0.74 | agonist nHill ([6]; absence of PS): 0.90 ± 0.01; agonist Emax ([7]; presence of PS): 1.92 ± 0.19; agonist nH ([9]; +100 μM PS): 1.15 ± 0.03; agonist nH ([10]; +100 μM PS): 1.11 ± 0.12; agonist nH ([11]; +100 μM PS): 0.95 ± 0.01; agonist Emax ([11]; no PS): 1.22 ± 0.05
